Here are results for one molecule from patent US10723706B2, “Perk inhibitors and uses thereof in treating diseases associated with aggregation-prone proteins” (Ramot at Tel-Aviv University Ltd., priority 2016, dated 2020).

Entries after “also recorded” stand apart in the source; their conditions may differ.

In data set [1] the test system is STHdhQ111/111 cells. The data set can be described thus: Rescue of cells incubated in DMEM without serum and without Tun, PI cell cycle FACS. The data set is classed as cell-based, murine. The settings on record: 48 hours in DMEM without serum and without Tun. How it is done:
STHdhQ7/7 and STHdhQ111/111 cells were grown as described in Leitman et al. [PLoS One 2014, 9(3):e90803].
After the indicated treatment times in full medium or in DMEM without serum, cells were incubated with propidium iodide (PI) solution ([…]) and read by flow cytometry as described in Leitman et al. [PLoS One 2014, 9(3):e90803]. Cells in sub-G0/G1 were counted as apoptotic/dead cells.
The activity of the novel inhibitors, compared to A4, in preventing cytotoxicity induced by pathogenic Htt, was then tested. A stable murine striatal cell line expressing full-length polyQ-expanded Htt, STHdhQ^111/111, was used.

Data set [2] has as its system R6/2 transgenic mice. The data set can be described thus: Combined motor phenotype (ledge, clasping, gait, kyphosis) in R6/2 mice. The data set is classed as in vivo, mouse. The text has this: Hind-limb clasping behavior was scored on a scale from 0 to 3: 0=normal; 1=clasps hind limbs within 30 seconds of being suspended in the air; 2=clasps hind limbs within 5 seconds but recovers quickly when released after 30 seconds; 3=clasps hind limbs within 5 seconds and has difficulty recovering when released after 30 seconds.
The ledge test is a direct measure of coordination. Mice were lifted from the cage and placed on the cage's ledge. Mice will typically walk along the ledge and attempt to descend back into the cage. Walking along the ledge without losing its balance is assigned a score of 0. If the mouse loses its footing while walking along the ledge, it receives a score of 1. […] If it falls off the ledge, or nearly so, while walking or attempting to lower itself, or shakes and refuses to move at all despite encouragement, it receives a score of 3.
Gait is a measure of coordination and muscle function. […]
In parallel to the Rotarod analysis motor function and disease severity were evaluated using a simple composite phenotype that includes the combined analysis of hind limb clasping, ledge walk, gait and kyphosis [Guyenet et al., J Vis Exp 2010, (39):1787]. This test has the ability to effectively discriminate between affected and non-affected individuals, while also quantifying the temporal progression of neurodegenerative disease phenotypes such as HD.

Data set [3] relates to R6/2 transgenic mice. The data set can be described thus: Ultrasonic vocalization of R6/2 mice. The data set is classed as in vivo, mouse. How it is done:
Mice were treated as described in FIGS. 7 and 8. Transgenic mice receiving (MK-28 TG+) or vehicle (TG) were analyzed for vocalization as number of syllables in 5 minutes intervals. (n=3-4, p=0.059).
(§1) Alzet pumps were implanted at 4 weeks of age and MK-28 was administered at 1 mg/kg with continuous dosing for 28 days. This concentration is in a typical clinical dose range. The mice's motor function and coordination were tested by Rotarod, and limb clasping, ledge, gait and kyphosis were also tested. Vocalization tests were also performed and survival was assessed. Tests were performed in two independent blind experiments.
Vocalization was evaluated, as it reflects motor and cognitive abilities.

The test system of data set [4] is R6/2 transgenic mice. The data set can be described thus: Survival of R6/2 mice. The data set is classed as in vivo, mouse. How it is done: Animals were treated as described in FIGS. 7-9. Transgenic mice receiving MK-28 (blue) or vehicle (red) were analyzed for mice survival (n=13/group). Gehan-Breslow-Wilcoxon Test for comparisons of Kaplan-Meier survival curves indicated a significant increase in the survival of MK-28 treated mice compared to untreated littermates (median survival 97 and 89 days, respectively, p=0.0469). Ratio 1.887, 95% CI of ratio 0.7726 to 4.611.
as §1

Turning to `CN(/N=C\c1ccc(O)c(O)c1)c1nc(-c2ccccc2)cc(-c2ccccc2)n1` [Compound 3, 2-{N-methyl-N′-(3,4-dihydroxybenzylidene)hydrazinyl}-4,6-diphenylpyrimidine], the “protective (rescue) effect without ER stressor” value is given as “strong protective effect, in the low micromolar range” in data set [1] and “strong rescue effect” in data set [1] (listed as MK-28). Also, the “combined phenotype score of TG mice versus untreated TG” value in data set [2] (R6/2 TG mice, from week 6 after pump implantation, p<0.05, listed as MK-28) is “lower scores; also recorded: significant improvement”. In addition, the “combined phenotype of WT mice” value in data set [2] (WT mice, p>0.05) was “no detrimental effect”. Also, the “vocalization, number of syllables” value in data set [3] (R6/2 TG mice treated with MK-28, n=3-4, p=0.059) is given as 13.75 syllables in 5 minutes. In data set [3] (R6/2 TG mice, listed as MK-28), the “vocalization effect versus untreated R6/2” value is “three fold difference; also recorded: improved”. The “delay of death initiation versus vehicle” value in data set [4] (R6/2 TG mice) is given as approximately 10 days. Further, the “increase in median survival versus untreated TG” value in data set [4] (R6/2 TG mice) came to 8 days. This molecule also returned a median survival in data set [4] (R6/2 TG mice treated age weeks 4 to 8, n=13/group, p=0.0469) of 97 days. Besides, in data set [4] (R6/2 TG mice, 95% CI of ratio 0.7726 to 4.611), the “Ratio, comparison of Kaplan-Meier survival curves” value turned out to be 1.887.
